Reference: patent US8471005B2 (Cephalon, Inc., priority 2008, dated 2013)
Read-outs that look alike come from different tables or passages of the source.

Legend:
JAK2 = biological target: T1, JAK2 (Homo sapiens, UniProt O60674); test: Recombinant Human JAK2 Kinase Assay (TRF); assay type: biochemical; conditions: read-out: JAK2 Potency
T1 construct: host or cells: baculovirus expression system
Method in brief: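 Baculovirus-expressed JAK2 (15 ng/ml) phosphorylated a biotinylated 15-mer peptide captured on Neutravidin-coated plates, in 20 mM HEPES pH 7.2 with 0.2 μM ATP, 1 mM MnCl2, 0.1% BSA and 2.5% DMSO. Reaction ran 20 min at room temperature; phosphopeptide was detected by time-resolved fluorescence with Eu-N1-labelled PY100 antibody.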

ALK = biological target: T2, ALK (Homo sapiens, UniProt Q9UM73); test: ALK Kinase Assay (ELISA/TRF, PLC-γ substrate); assay type: biochemical; conditions: read-out: ALK Potency
T2 construct: host or cells: baculovirus expression system
T2 sequence (Q9UM73 19-1620): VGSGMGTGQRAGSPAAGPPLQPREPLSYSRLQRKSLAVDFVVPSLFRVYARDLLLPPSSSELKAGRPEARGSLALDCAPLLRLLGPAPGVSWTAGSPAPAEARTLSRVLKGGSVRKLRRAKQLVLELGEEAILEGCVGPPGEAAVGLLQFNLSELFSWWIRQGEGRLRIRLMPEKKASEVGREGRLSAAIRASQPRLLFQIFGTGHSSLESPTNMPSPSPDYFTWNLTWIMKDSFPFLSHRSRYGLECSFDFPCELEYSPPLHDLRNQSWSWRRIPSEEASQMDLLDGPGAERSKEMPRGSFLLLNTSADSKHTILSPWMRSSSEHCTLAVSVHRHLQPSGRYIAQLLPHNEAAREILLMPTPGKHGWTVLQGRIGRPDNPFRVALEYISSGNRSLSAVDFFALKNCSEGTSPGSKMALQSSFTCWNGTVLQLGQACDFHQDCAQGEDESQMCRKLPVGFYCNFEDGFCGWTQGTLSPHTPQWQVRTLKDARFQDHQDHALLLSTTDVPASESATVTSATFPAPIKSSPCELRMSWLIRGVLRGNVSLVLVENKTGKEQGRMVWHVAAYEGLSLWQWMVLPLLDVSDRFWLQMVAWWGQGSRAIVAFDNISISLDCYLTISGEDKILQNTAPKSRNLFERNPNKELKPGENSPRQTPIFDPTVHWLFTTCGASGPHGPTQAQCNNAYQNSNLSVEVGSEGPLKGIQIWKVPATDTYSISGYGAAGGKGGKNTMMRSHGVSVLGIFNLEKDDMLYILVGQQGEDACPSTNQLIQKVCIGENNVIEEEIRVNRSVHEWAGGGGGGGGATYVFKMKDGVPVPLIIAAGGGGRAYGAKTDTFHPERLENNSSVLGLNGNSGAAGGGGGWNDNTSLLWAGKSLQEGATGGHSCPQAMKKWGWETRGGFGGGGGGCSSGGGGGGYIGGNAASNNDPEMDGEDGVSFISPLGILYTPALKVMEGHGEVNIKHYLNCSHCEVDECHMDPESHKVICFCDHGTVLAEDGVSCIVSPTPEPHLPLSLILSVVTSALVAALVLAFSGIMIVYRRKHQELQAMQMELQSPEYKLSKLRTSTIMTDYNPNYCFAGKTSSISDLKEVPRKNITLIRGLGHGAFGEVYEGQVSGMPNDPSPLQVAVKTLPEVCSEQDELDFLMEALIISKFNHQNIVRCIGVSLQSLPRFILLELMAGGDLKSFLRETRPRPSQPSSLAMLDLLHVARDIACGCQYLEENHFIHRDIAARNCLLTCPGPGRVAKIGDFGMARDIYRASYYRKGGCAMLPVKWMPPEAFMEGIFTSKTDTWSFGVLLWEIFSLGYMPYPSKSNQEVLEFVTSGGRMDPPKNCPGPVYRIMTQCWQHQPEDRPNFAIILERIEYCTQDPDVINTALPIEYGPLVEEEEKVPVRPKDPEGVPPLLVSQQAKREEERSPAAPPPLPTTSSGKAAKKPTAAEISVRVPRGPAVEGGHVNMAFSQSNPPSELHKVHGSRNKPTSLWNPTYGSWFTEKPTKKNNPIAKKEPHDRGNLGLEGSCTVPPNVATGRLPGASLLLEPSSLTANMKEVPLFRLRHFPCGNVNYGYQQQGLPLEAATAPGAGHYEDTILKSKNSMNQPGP
Method in brief: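 First, plates are coated with substrate (phospholipase C-γ, 10 μg/mL, TBS). Next, 30 ng/ml ALK initiates phosphorylation for 15 min at 37° C. Then Eu-N1 PT66 antibody is added for detection, and a nonlinear dose-response fit of percent inhibition yields IC50.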

[1] = JAK2 kinase inhibition, 0.2 μM ATP
[2] = ALK kinase inhibition, 1 μM ATP

T1 sequence (O60674 whole entry): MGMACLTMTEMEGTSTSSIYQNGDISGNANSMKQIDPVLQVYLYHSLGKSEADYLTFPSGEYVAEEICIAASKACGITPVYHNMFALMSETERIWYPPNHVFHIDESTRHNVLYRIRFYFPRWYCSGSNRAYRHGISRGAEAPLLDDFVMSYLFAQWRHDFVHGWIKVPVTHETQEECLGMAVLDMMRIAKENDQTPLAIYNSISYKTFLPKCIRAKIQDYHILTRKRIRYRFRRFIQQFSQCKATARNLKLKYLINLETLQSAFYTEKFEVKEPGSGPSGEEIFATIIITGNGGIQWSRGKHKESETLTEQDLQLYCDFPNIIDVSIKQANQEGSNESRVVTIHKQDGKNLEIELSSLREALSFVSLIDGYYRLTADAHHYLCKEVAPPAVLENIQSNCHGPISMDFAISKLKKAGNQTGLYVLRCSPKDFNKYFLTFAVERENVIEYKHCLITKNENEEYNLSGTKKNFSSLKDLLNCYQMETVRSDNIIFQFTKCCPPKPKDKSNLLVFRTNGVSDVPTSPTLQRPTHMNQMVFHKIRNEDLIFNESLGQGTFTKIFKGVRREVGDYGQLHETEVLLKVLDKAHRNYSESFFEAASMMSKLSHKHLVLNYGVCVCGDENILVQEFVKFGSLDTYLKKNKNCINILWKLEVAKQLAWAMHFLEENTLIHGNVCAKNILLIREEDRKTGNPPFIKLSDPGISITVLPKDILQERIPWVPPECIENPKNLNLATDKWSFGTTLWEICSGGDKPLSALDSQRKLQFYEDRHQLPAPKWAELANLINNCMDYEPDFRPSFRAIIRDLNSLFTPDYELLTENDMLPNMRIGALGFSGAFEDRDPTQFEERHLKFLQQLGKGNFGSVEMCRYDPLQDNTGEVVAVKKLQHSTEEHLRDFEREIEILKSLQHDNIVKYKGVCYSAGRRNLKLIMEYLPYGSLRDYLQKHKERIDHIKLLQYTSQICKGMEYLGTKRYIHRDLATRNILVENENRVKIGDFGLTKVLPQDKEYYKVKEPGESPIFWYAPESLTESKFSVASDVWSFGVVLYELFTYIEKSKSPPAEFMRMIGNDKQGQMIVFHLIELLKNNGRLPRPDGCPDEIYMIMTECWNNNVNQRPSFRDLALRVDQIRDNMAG

| Molecule | IC50 (JAK2; JAK2 Kinase Inhibition) [nM] | IC50 (ALK; ALK Kinase Inhibition) [nM] | IC50 (JAK2; [1]) [nM] | IC50 (ALK; [2]) [nM] |
| --- | --- | --- | --- | --- |
| CN1CCN(c2ccc(Nc3ncc4ccc(-c5cccnc5)n4n3)cc2)CC1 [Example 27, [4-(4-Methyl-piperazin-1-yl)-phenyl]-(7-pyridin-3-yl-pyrrolo[2,1-f][1,2,4]triazin-2-yl)-amine] | < 100 | 100 to 1000 |  |  |
| COc1ccccc1-c1ccc2cnc(Nc3ccc(N4CCCC(N5CCOCC5)C4)cc3)nn12 (stereo not shown) [Example 343, [7-(2-Methoxy-phenyl)-pyrrolo[2,1-f][1,2,4]triazin-2-yl]-[4-(3-morpholin-4-yl-piperidin-1-yl)-phenyl]-amine] | < 100 | < 100 |  |  |
| CN1CCN(C2CCN(c3ccc(Nc4ncc5ccc(-c6cccnc6)n5n4)cc3)CC2)CC1 [Example 313, {4-[4-(4-Methyl-piperazin-1-yl)-piperidin-1-yl]-phenyl}-(7-pyridin-3-yl-pyrrolo[2,1-f][1,2,4]triazin-2-yl)-amine] | < 100 | 100 to 1000 |  |  |
| CCc1cc(-c2ccccc2OC)n2nc(Nc3ccc(N4CCN(C)CC4)cc3)ncc12 [Example 106, [5-Ethyl-7-(2-methoxy-phenyl)-pyrrolo[2,1-f][1,2,4]triazin-2-yl]-[4-(4-methyl-piperazin-1-yl)-phenyl]-amine] | < 100 | 100 to 1000 |  |  |
| CCS(=O)(=O)Nc1cccc(-c2ccc3cnc(Nc4ccc(N5CCOCC5)cc4)nn23)c1 [Example 416, Ethanesulfonic acid {3-[2-(4-morpholin-4-yl-phenylamino)-pyrrolo[2,1-f][1,2,4]triazin-7-yl]-phenyl}-amide] | < 100 | 100 to 1000 |  |  |
| CC1(C)CCC(=O)Nc2cc(Nc3ncc4ccc(-c5ccc(S(C)(=O)=O)cc5)n4n3)ccc21 [Example 92, 8-[7-(4-Methanesulfonyl-phenyl)-pyrrolo[2,1-f][1,2,4]triazin-2-ylamino]-5,5-dimethyl-1,3,4,5-tetrahydro-benzo[b]azepin-2-one] | < 100 | 1000 to 10000 |  |  |
| CC(C)(C)NS(=O)(=O)c1cccc(-c2ccc3cnc(Nc4cncc(C(N)=O)c4)nn23)c1 [Example 665, 5-[7-(3-tert-Butylsulfamoyl-phenyl)-pyrrolo[2,1-f][1,2,4]triazin-2-ylamino]-nicotinamide] |  |  | < 100 | > 10000 |
| CC(=O)Nc1ccccc1-c1ccc2cnc(Nc3ccc(N4CCC(N5CCOCC5)CC4)cc3)nn12 [Example 454, N-(2-{2-[4-(4-Morpholin-4-yl-piperidin-1-yl)-phenylamino]-pyrrolo[2,1-f][1,2,4]triazin-7-yl}-phenyl)-acetamide] | < 100 | 100 to 1000 |  |  |
| CC(C)(C)NS(=O)(=O)c1cccc(-c2ccc3cnc(Nc4ccc(N5CCC(N6CCNC(=O)C6)CC5)cc4)nn23)c1 [Example 562, N-tert-Butyl-3-(2-{4-[4-(3-oxo-piperazin-1-yl)-piperidin-1-yl]-phenylamino}-pyrrolo[2,1-f][1,2,4]triazin-7-yl)-benzenesulfonamide] |  |  | < 100 | 100 to 1000 |
| [7-(3-Chloro-phenyl)-pyrrolo[2,1-f][1,2,4]triazin-2-yl]-{4-[2-(4-ethyl-piperazin-1-yl)-ethoxy]-phenyl}-amine [Example 93] | < 100 | < 100 |  |  |
| FC(F)(F)c1cc(-c2ccc3cnc(Nc4ccc(N5CCOCC5)cc4)nn23)ccc1Cl [Example 58, [7-(4-Chloro-3-trifluoromethyl-phenyl)-pyrrolo[2,1-f][1,2,4]triazin-2-yl]-(4-morpholin-4-yl-phenyl)-amine] | < 100 | 1000 to 10000 |  |  |
| C[C@@H](O)CN1CCN(c2cccc(Nc3ncc4ccc(-c5ccc(S(C)(=O)=O)cc5)n4n3)c2)CC1 [Example 217, (R)-1-(4-{3-[7-(4-Methanesulfonyl-phenyl)-pyrrolo[2,1-f][1,2,4]triazin-2-ylamino]-phenyl}-piperazin-1-yl)-propan-2-ol] | < 100 | 100 to 1000 |  |  |
| COc1cc(C2CCN(CC(N)=O)CC2)ccc1Nc1ncc2ccc(-c3ccccc3C#N)n2n1 [Example 517, 2-(4-{4-[7-(2-Cyano-phenyl)-pyrrolo[2,1-f][1,2,4]triazin-2-ylamino]-3-methoxy-phenyl}-piperidin-1-yl)-acetamide] |  |  | 100 to 1000 | < 100 |
| COc1ccc(Cl)cc1-c1ccc2cnc(Nc3ccc(N4CCCC(N5CCN(C)CC5)C4)cc3)nn12 (stereo not shown) [Example 349, [7-(5-Chloro-2-methoxy-phenyl)-pyrrolo[2,1-f][1,2,4]triazin-2-yl]-{4-[3-(4-methyl-piperazin-1-yl)-piperidin-1-yl]-phenyl}-amine] | < 100 | < 100 |  |  |

Now from value to molecule:

| IC50 (JAK2; JAK2 Kinase Inhibition) [nM] | IC50 (ALK; ALK Kinase Inhibition) [nM] | IC50 (JAK2; [1]) [nM] | IC50 (ALK; [2]) [nM] | Molecule |
| --- | --- | --- | --- | --- |
|  |  | < 100 | > 10000 | CC(=O)N1CCc2ccc(Nc3ncc4ccc(-c5cccc(NC(=O)C(C)(C)C)c5)n4n3)cc21 [Example 882, N-{3-[2-(1-Acetyl-2,3-dihydro-1H-indol-6-ylamino)-pyrrolo[2,1-f][1,2,4]triazin-7-yl]-phenyl}-2,2-dimethyl-propionamide] |
|  |  | < 100 | < 100 | CCN(CC)C1CCN(c2ccc(Nc3ncc4ccc(-c5ccccc5N(C)S(C)(=O)=O)n4n3)cc2)CC1 [Example 1204, N-(2-{2-[4-(4-Diethylamino-piperidin-1-yl)-phenylamino]-pyrrolo[2,1-f][1,2,4]triazin-7-yl}-phenyl)-N-methyl-methanesulfonamide] |
|  |  | < 100 | 1000 to 10000 | CN1CCN(C)C(c2cccc(Nc3ncc4ccc(-c5ccccc5N(C)S(C)(=O)=O)n4n3)c2)C1=O (stereo not shown) [Example 1083, N-(2-{2-[3-(1,4-Dimethyl-3-oxo-piperazin-2-yl)-phenylamino]-pyrrolo[2,1-f][1,2,4]triazin-7-yl}-phenyl)-N-methyl-methanesulfonamide] |
| < 100 | 100 to 1000 |  |  | COc1cc(N2CCC(F)(F)CC2)ccc1Nc1ncc2ccc(-c3ccccc3OC)n2n1 [Example 1470, [4-(4,4-Difluoro-piperidin-1-yl)-2-methoxy-phenyl]-[7-(2-methoxy-phenyl)-pyrrolo[2,1-f][1,2,4]triazin-2-yl]-amine] |
|  |  | < 100 | 100 to 1000 | CC(=O)N1CC(C)(C)c2ccc(Nc3ncc4ccc(-c5cnn(C)c5)n4n3)cc21 [Example 968, 1-{3,3-Dimethyl-6-[7-(1-methyl-1H-pyrazol-4-yl)-pyrrolo[2,1-f][1,2,4]triazin-2-ylamino]-2,3-dihydro-indol-1-yl}-ethanone] |
|  |  | < 100 | 100 to 1000 | COc1ccc(-c2ccc3cnc(Nc4ccc(C5CCN(CC(N)=O)CC5)c(NC(C)=O)c4)nn23)cn1 [Example 939, 2-(4-{2-Acetylamino-4-[7-(6-methoxy-pyridin-3-yl)-pyrrolo[2,1-f][1,2,4]triazin-2-ylamino]-phenyl}-piperidin-1-yl)-acetamide] |
| < 100 | 100 to 1000 |  |  | CC(=O)N1CC(C)(C)c2ccc(Nc3ncc4ccc(-c5cccc(S(=O)(=O)NC(C)(C)C)c5)n4n3)cc21 [Example 1388, 3-[2-(1-Acetyl-3,3-dimethyl-2,3-dihydro-1H-indol-6-ylamino)-pyrrolo[2,1-f][1,2,4]triazin-7-yl]-N-tert-butyl-benzenesulfonamide] |
|  |  | < 100 | 1000 to 10000 | Cn1ncc2ccc(Nc3ncc4ccc(-c5cccc(S(=O)(=O)NC(C)(C)C)c5)n4n3)cc21 [Example 1317, N-tert-Butyl-3-[2-(1-methyl-1H-indazol-6-ylamino)-pyrrolo[2,1-f][1,2,4]triazin-7-yl]-benzenesulfonamide] |
| < 100 | 1000 to 10000 |  |  | COc1ccc(-c2ccc3cnc(Nc4cccc(C5CNCCN5)c4)nn23)cn1 (stereo not shown) [Example 1566, [7-(6-Methoxy-pyridin-3-yl)-pyrrolo[2,1-f][1,2,4]triazin-2-yl]-(3-piperazin-2-yl-phenyl)-amine] |
|  |  | < 100 | < 100 | N#CCOc1ccccc1-c1ccc2cnc(Nc3ccc(N4CCOCC4)cc3)nn12 [Example 1144, {2-[2-(4-Morpholin-4-yl-phenylamino)-pyrrolo[2,1-f][1,2,4]triazin-7-yl]-phenoxy}-acetonitrile] |
|  |  | < 100 | 100 to 1000 | CN1CCN(c2cccc(Nc3ncc4ccc(-c5cn[nH]c5)n4n3)c2)CC1 [Example 970, [3-(4-Methyl-piperazin-1-yl)-phenyl]-[7-(1H-pyrazol-4yl)-pyrrolo[2,1-f][1,2,4]triazin-2-yl]-amine] |
|  |  | < 100 | 100 to 1000 | CCN(CC)C1CCN(c2ccc(Nc3ncc4ccc(-c5cnn(C)c5)n4n3)cc2)CC1 [Example 1207, [4-(4-Diethylamino-piperidin-1-yl)-phenyl]-[7-(1-methyl-1H-pyrazol-4-yl)-pyrrolo[2,1-f][1,2,4]triazin-2-yl]-amine] |
|  |  | < 100 | 100 to 1000 | COc1ccccc1-c1ccc2cnc(Nc3ccc4c(c3)NC(=O)CC4)nn12 [Example 981, 7-[7-(2-Methoxy-phenyl)-pyrrolo[2,1-f][1,2,4]triazin-2-ylamino]-3,4-dihydro-1H-quinolin-2-one] |
|  |  | 100 to 1000 | < 100 | COc1cc(N2CCCN(C[C@@H](C)O)CC2)ccc1Nc1ncc2ccc(-c3ccccc3N(C)S(C)(=O)=O)n2n1 [Example 772, N-[2-(2-{4-[4-((R)-2-Hydroxy-propyl)-[1,4]diazepan-1-yl]-2-methoxy-phenylamino}-pyrrolo[2,1-f][1,2,4]triazin-7-yl)-phenyl]-N-methyl-methanesulfonamide] |
|  |  | 100 to 1000 | < 100 | COc1cc2c(cc1Nc1ncc3ccc(-c4ccccc4OC)n3n1)CCC1(CCN(C)CC1)O2 [Example 997, 7-methoxy-N-[7-(2-methoxyphenyl)pyrrolo[2,1-f][1,2,4]triazin-2-yl]-1′-methyl-3,4-dihydrospiro[chromene-2,4′-piperidin]-6-amine] |
